# Reference: ChEMBL document CHEMBL1201862, “PubChem BioAssay data set” (2004)
# Active and inactive are the calls of the source.
# Experiments:
# [1] = inhibitors of Vif binding to APOBEC3G peptide, primary screen, biochemical, TR-FRET, GST-Vif 1-94, biotin-A3G peptide, dose response retest (AID 1117319); assay type: functional;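 also: TR-FRET signal of purified GST-Vif binding a biotinylated A3G peptide; inhibitors lower the FRET signal by blocking Vif and A3G binding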
# [2] = target: T1, Type-1 angiotensin II receptor (Homo sapiens, UniProt P30556); assay: AT1 receptor antagonists, dose response, selectivity assay for APJ receptor antagonist project, cell-based, uHTS hits (AID 463214); assay type: functional;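 also: antagonist potency against angiotensin II stimulated AT1 response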
# T1 sequence (P30556 whole entry): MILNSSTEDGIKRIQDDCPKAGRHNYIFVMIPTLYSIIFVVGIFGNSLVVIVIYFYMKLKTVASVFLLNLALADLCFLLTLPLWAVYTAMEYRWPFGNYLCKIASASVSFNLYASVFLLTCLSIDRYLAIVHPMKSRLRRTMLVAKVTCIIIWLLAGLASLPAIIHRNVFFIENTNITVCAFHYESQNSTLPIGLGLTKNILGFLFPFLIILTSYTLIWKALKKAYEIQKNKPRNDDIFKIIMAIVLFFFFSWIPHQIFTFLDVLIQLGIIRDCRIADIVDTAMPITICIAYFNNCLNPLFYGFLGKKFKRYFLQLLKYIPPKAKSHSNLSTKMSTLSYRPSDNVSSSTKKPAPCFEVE
# HeLa = assay: HeLa cell cytotoxicity, dose response, cytotoxicity control, ATP luminescence, cherry-pick samples (AID 687004); assay type: functional, cell-based
# Beta-galactosidase = Beta-galactosidase (Escherichia coli, UniProt Q8VNN2); assay: PubChem AID 485352; assay type: functional
# Beta-galactosidase, sequence (Q8VNN2 whole entry): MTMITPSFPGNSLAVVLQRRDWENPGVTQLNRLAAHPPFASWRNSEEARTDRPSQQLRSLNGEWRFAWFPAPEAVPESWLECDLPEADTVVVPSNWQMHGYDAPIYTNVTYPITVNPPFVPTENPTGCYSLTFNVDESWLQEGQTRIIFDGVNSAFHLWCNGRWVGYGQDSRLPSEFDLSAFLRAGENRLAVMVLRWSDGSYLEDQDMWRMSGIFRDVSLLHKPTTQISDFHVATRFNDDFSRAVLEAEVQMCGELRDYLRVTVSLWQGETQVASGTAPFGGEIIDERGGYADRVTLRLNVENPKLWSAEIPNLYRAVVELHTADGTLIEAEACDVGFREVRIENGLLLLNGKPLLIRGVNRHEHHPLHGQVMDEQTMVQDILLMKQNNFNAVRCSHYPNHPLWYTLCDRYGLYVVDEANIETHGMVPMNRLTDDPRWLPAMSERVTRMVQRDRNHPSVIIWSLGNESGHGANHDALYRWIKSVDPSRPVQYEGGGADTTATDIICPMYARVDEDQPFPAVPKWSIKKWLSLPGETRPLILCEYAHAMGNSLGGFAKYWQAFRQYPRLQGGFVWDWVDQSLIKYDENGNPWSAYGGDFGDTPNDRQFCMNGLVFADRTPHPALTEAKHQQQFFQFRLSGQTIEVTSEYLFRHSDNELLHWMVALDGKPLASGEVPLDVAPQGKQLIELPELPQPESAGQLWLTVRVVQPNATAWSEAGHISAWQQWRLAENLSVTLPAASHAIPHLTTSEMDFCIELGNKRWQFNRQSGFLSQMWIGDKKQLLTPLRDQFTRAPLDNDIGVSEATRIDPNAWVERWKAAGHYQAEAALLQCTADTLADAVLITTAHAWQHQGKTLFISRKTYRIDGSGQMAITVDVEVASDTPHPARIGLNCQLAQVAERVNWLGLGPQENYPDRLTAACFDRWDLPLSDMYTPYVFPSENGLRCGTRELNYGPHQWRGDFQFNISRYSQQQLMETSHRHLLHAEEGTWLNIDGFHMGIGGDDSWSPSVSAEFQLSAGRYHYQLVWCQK
# [3] = HepG2 cell cytotoxicity, dose response, cytotoxicity control, plate reader, cherry-pick, antagonist series (AID 743416); assay type: functional, cell-based
# [4] = MC4R antagonists, dose response, counter-screen for LGR2 antagonist project, cell-based, plate reader, cherry pick (AID 743444); assay type: functional;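 also: transfected HEK 293 cells stimulated with alpha-MSH peptide; potency of inhibitors of the alpha-MSH evoked signal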
# [5] = A549 cell cytotoxicity, dose response, cytotoxicity control, plate reader, cherry-pick, antagonist series (AID 743412); assay type: functional, cell-based
# [6] = LGR2 antagonists, dose response, cell-based, HEK293, CRE-luciferase reporter, cherry pick, set 2 (AID 743343); assay type: functional;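 also: transfected cells were stimulated with diluted bursicon conditioned medium after compound addition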
# [7] = target: T2, Oxysterols receptor LXR-beta (Homo sapiens, UniProt P55055); assay type: functional, cell-based;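 also: Cell-based luminescence dose-response assay of agonist activity at LXR, run as a confirmatory counterscreen to a daf-12 agonist screen; HEK293 cells with Gal4-LXR fusion and GAL4-driven luciferase reporter; agonist potency from rising luciferase signal of a Gal4-LXR reporter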
# T2 sequence (P55055 whole entry): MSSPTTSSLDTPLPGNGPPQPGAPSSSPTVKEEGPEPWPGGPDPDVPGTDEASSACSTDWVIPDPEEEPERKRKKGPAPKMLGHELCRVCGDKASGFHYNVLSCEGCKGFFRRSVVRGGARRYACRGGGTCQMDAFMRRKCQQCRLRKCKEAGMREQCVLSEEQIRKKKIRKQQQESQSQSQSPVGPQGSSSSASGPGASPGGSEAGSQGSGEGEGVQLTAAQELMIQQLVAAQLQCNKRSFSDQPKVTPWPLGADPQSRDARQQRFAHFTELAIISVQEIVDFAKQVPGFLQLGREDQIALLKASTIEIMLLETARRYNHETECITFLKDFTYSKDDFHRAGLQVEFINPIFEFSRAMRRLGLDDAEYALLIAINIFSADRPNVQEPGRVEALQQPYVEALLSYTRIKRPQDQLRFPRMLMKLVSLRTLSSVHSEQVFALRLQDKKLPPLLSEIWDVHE
# [8] = HeLa 4N DNA content increase, dose response, cell-based, IC50 (AID 1117351); assay type: functional
# [9] = SNU-C1 cell viability reduction, dose response, CellTiter-Glo luminescence (AID 1117323); assay type: functional, cell-based
# [10] = HCT116 cell viability decrease, GSK3B pretreatment – CellTiter-Glo, IC50, dose response (AID 1117339); assay type: functional; conditions: HCT-116
# [11] = cytotoxicity toward HCT116 cells – cell-based, CellTiter-Glo luminescence, IC50, dose response (AID 1117332); assay type: functional; conditions: HCT-116
# [12] = HeLa 2N DNA content increase, dose response, cell-based, IC50 (AID 1117349); assay type: functional
# [13] = RKO cell viability reduction, dose response, CellTiter-Glo luminescence (AID 1117322); assay type: functional
# [14] = cytotoxicity toward Colo320 cells – cell-based, CellTiter-Glo luminescence, IC50, dose response (AID 1117334); assay type: functional; conditions: COLO 320
# [15] = cytotoxicity toward HT-29 cells – cell-based, CellTiter-Glo luminescence, IC50, dose response (AID 1117330); assay type: functional
# [16] = Concentration-dependent survival of SW480 colon cancer line, luminescence detection with CellTiter-Glo, half-maximal inhibitory concentration (AID 1117338); assay type: functional
# [17] = CellTiter-Glo luminescent dose response of DLD-1 viability loss (AID 1117352); assay type: functional
# [18] = target: Mitogen-activated protein kinase 10 (Homo sapiens, UniProt P53779); assay: Dose response biochemical screening assay for inhibitors of c-Jun N-Terminal Kinase 3 (JNK3). [Related pubchem assays: 746 ]
# Mitogen-activated protein kinase 10, sequence (P53779 whole entry): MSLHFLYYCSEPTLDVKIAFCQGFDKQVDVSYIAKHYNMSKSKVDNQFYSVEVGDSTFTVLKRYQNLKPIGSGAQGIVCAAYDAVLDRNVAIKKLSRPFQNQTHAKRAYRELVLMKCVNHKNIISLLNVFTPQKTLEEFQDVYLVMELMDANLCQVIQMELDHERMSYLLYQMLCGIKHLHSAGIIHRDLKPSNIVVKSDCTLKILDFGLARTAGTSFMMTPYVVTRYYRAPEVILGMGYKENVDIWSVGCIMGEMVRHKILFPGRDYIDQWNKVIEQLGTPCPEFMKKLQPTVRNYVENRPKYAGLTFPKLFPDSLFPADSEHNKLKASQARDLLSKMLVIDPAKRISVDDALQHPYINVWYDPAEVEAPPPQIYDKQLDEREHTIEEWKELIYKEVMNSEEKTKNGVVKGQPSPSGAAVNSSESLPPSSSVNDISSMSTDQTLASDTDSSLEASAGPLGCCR
# [19] = inhibitors of firefly luciferase expression or activity, dose response, H4 neuroglioma cells, luminescence (AID 1990); assay type: functional, cell-based
# [20] = Luminescence Cell-Based Dose Response HTS to Identify Inhibitors of 5'UTR Stem-Loop Driven Prion Protein mRNA Translation in H4 Neuroglioblastoma Cells. [Related pubchem assays: 1827 (Project Summary), 1813 (Primary HTS)]; assay type: functional
# [21] = inhibitors of SNCA 5'UTR-driven reporter translation, confirmation, H4 neuroglioma cells, luminescence (AID 1988); assay type: functional, cell-based
# [22] = target: T3, Acyl-homoserine lactone acylase PvdQ (Pseudomonas aeruginosa (strain LESB58), UniProt Q9I194); assay: P. aeruginosa PvdQ acylase inhibitors, dose response, biochemical, fluorescence, plate reader and imaging, cherry-picks (AID 493231)
# T3 sequence (Q9I194 whole entry): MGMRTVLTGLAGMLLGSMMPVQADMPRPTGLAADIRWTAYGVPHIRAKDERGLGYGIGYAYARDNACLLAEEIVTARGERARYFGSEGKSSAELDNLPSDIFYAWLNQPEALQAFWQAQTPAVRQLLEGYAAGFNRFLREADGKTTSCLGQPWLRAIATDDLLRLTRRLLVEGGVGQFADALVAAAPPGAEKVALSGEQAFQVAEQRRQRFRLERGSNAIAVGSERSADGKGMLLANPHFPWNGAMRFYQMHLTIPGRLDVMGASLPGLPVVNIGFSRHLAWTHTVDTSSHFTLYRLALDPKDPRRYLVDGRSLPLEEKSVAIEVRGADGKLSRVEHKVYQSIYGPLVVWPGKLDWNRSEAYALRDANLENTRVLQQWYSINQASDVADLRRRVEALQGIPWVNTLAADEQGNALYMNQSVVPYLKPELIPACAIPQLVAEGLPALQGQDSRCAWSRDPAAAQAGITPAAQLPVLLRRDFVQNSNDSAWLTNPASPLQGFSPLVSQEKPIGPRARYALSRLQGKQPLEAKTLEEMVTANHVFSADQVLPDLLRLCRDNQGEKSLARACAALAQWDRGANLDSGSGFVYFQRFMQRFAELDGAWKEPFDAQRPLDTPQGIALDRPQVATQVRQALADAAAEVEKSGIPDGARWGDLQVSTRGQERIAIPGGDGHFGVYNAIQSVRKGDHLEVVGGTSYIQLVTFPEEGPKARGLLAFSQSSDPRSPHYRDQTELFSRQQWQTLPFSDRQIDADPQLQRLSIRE
# [23] = HEK293 cell cytotoxicity, dose response, cytotoxicity control, plate reader, cherry-picked samples (AID 743446); assay type: functional, cell-based
smiles,measurement,setting,value
Cn1nnc(NC(=O)c2cccc(F)c2)n1,IC50,[1],> 100 µM (active)
COc1ccc(C(=O)NC(=S)Nc2cccc(Cl)c2N2CCOCC2)cc1[N+](=O)[O-],IC50,[2],> 40 µM (not active)
same,AC50,HeLa,28.8 µM (active)
same,AC50,HeLa; Homo sapiens,> 52 µM (inactive)
same,EC50,Beta-galactosidase,> 40 µM (inactive)
Cc1ccc(C(=O)NC2CCCCCCC2)c(Cl)c1,AC50,[3],25.6 µM (active)
same,AC50,[4],5.7 µM (active)
same,AC50,[5],25.8 µM (active)
same,AC50,[6],8.04 µM (active)
CN(C)c1ccc(/C=C/C#N)cc1,IC50,[1],> 100 µM (active)
O=P1(O)C=C(c2ccccc2)OC(c2ccccc2)=C1,EC50,cells,> 67.5 µM (inactive)
same,EC50,[7],> 67.5 µM (inactive)
CC(C)=CCOc1ccc(/C=C/C(=O)c2ccc(OCC=C(C)C)cc2OCC(=O)O)cc1 [SOFALCONE],IC50,[8],> 10 µM (inactive)
same,IC50,[9],7.44 µM (inactive)
same,IC50,[10],3.04 µM (active)
same,IC50,[11],> 6.67 µM (inactive)
same,IC50,[12],> 10 µM (inactive)
same,IC50,[13],5.53 µM (inactive)
same,IC50,[14],1.55 µM (active)
same,IC50,[15],5.4 µM (inactive)
same,IC50,[16],2.92 µM (active)
same,IC50,[17],5.36 µM (inactive)
CC1=C(C(=O)OC2CCCCCCC2)C(c2ccc(O)cc2)NC(=O)N1 (configuration not stated),IC50,[18],41.9 µM (not active)
same,EC50,[19],21.1 µM (active)
same,EC50,[20],> 120 µM (not active)
same,EC50,[21],23.9 µM (active)
COc1ccc(-c2nc3ccccc3s2)cc1,AC50,[22],> 100 µM (inactive)
same,AC50,[3],> 52 µM (inactive)
same,AC50,[23],> 52 µM (inactive)
same,AC50,[4],2.75 µM (active)
same,AC50,[5],42.9 µM (active)
same,AC50,[6],2.17 µM (active)
